Counter-ions that a name gives are not always drawn.

One test deals with activity of 200 ng/mL of NGF (NXF promoter-driven luciferase in PC12 cells). In words: Luciferase reporter assay (NXF promoter) in PC12 cells: potentiation of NGF activity. It is filed as cell-based, rat. Set-up: key: +: Showed relatively weak potentiation (potentiation only exhibited at 10 μM); ++: Showed potentiation; +++: Showed particularly strong potentiation (2-fold or greater potentiation of the activity of 200 ng/mL of NGF at 1 μM). As to conditions: Test Example 1, relative luciferase activity vs 200 ng/mL NGF alone, overnight (approx. 16 hours). The protocol:
The forward primer 5′-[…]-3′ and the reverse primer 5′-[…]-3′ were prepared as the PCR primers according to the sequence information for the NXF gene genome sequence (Accession Nos. AB054577 and NC—000085), and the PCR method was used to isolate from approximately 5 kbp upstream from the translated region of the NXF gene promoter portion to the vicinity of the transcription start site. For this, 1 μg of mouse genomic DNA (Takara) was used as the template, and the 2-step PCR reaction was carried out for 35 cycles, the conditions for which were 95° C./1 m in the denaturing step, and 68° C./8 m in the annealing and extension steps, to obtain the PCR product. The NXF promoter fragment was inserted into the SmaI site of the pGL3 Basic vector (Promega) in the upstream of luciferase gene to prepare a reporter plasmid that would express the luciferase enzyme driven by the NXF promoter.
PC12 cells (available from the ATCC) were cultured using RPMI medium (GIBCO-BRL) with 5% FCS (GIBCO-BR) and 15% horse serum (GIBCO-BRL) added, and 1 mM in sodium pyruvate (GIBCO-BRL), at 37° C. in the presence of 5% CO2. After transfection in 10^6 of these PC12 cells for 2 days with 12 μg of the above-described reporter plasmid and 1 μg of pRC/RSV vector (Invitrogen) using the Lipofectamine 2000 reagent (Invitrogen), the medium was exchanged for fresh medium containing 40 mg/L of geneticin sulfate (GIBCO), and this was cultured continuously. Culturing was continued for approximately 1 month with medium exchange of the cultured medium containing 40 mg/L of geneticin sulfate (GIBCO) every several days, with the result that multiple colonies of the obtained cells were picked up. Among these, one of the colonies that induced luciferase activity in the presence of 40 ng/mL of NGF (Wako Pure Chemicals) was selected and used for the cells to evaluate the activity of the compounds below.
These cells were set up in 96-well plates with 80% confluence, and the luciferase reporter assay was conducted using the Promega Steady Glo luciferase assay kit. The procedure was carried out overnight (approx. 16 hours) using culture medium containing the compound, and the Steady Glo substrate solution was added to the cells in half-diluted in PBS after removal of all remaining medium containing the compound. After this was allowed to stand for 30 minutes, the respective quantity of light produced was measured with a luminometer (Envision Perkin Elmer).
The activity of the compounds for evaluation was measured as the potentiation of the activity of 200 ng/mL of NGF. For the experiment control wells, the negative control well had medium containing only a final concentration of 0.1% DMSO, the positive control well had medium containing a saturation concentration of NGF. In addition, a test well was set up containing 0.1% DMSO with 200 ng/mL of NGF added corresponding to a 0 compound concentration. When its luciferase activity was taken as a standard, the relative luciferase activity could be calculated for the test wells to which the compound solution (dissolved in DMSO and prepared to have a final DMSO concentration of 0.1%) had been added in addition to the 200 ng/mL of NGF, to find the potentiation of the activity of 200 ng/mL of NGF due to that compound.
(A reporter such as luciferase makes a cellular process visible.)
On to `c1ccc2oc(-c3ccc4c(c3)nc(C3CCCCC3)n4C3CCOCC3)nc2c1` [Ex. 23, 5-(benzoxazol-2-yl)-2-cyclohexyl-1-(tetrahydropyran-4-yl)benzimidazole], for which the “Activity (potentiation of NGF activity)” value is recorded as “++”. Still for that read-out and setting: in the case of `COc1ccc(-n2c(C)nc3cc(-c4nc5ccccc5o4)ccc32)cc1` [Ex. 15, 5-(benzoxazol-2-yl)-1-(4-methoxyphenyl)-2-methylbenzimidazole] it was “+”; in that of `c1ccc(-c2nc3cc(-c4nc5ccccc5o4)ccc3n2C2CCOCC2)nc1` [Ex. 21, 5-(benzoxazol-2-yl)-2-(2-pyridyl)-1-(tetrahydropyran-4-yl)benzimidazole], “++”; in that of `CN(C)Cc1nc2cc(-c3nc4ccccc4o3)ccc2n1C1CCOCC1` [Ex. 14, 5-(benzoxazol-2-yl)-2-(N,N-dimethylaminomethyl)-1-(tetrahydropyran-4-yl)benzimidazole], “+”. On the same count and under the same terms, in the case of `Cc1nc2cc(-c3nc4ccccc4o3)ccc2n1C(C)(C)C` [Ex. 29, 5-(benzoxazol-2-yl)-2-methyl-1-tert-butylbenzimidazole] it was “++”. Still for that read-out and setting: as for `c1ccc2oc(-c3ccc4c(c3)nc(-c3ncc[nH]3)n4C3CCOCC3)nc2c1` [Ex. 44, 5-(benzoxazol-2-yl)-2-(imidazol-2-yl)-1-(tetrahydropyran-4-yl)benzimidazole], the entry is “++”; as for `c1ccc2oc(-c3ccc4c(c3)nc(-c3ccncc3)n4C3CCOCC3)nc2c1` [Ex. 26, 5-(benzoxazol-2-yl)-2-(4-pyridyl)-1-(tetrahydropyran-4-yl)benzimidazole], “++”; as for `Cc1nc2cc(-c3cc4ccccc4n3C(=O)OC(C)(C)C)ccc2n1C1CCOCC1` [Ex. 37, 5-(N-t-butoxycarbonylindol-2-yl)-2-methyl-1-(tetrahydropyran-4-yl)benzimidazole], “++”. `Cc1nc2cc(-c3nc4ccccc4o3)ccc2n1C1CCNCC1` [Ex. 35, 5-(benzoxazol-2-yl)-1-(piperidine-4-yl)-2-methylbenzimidazole]: the “Activity (potentiation of NGF activity)” value is “++”.

For `Cc1nc2cc(-c3nc4ccccc4o3)ccc2n1Cc1ccccc1` [Ex. 17, 5-(benzoxazol-2-yl)-1-benzyl-2-methylbenzimidazole], the “Activity (potentiation of NGF activity)” value was “++”. Still for that read-out and setting: in the case of `Cc1nc2cc(-c3nc4ccccc4o3)ccc2n1-c1ccccc1` [Syn. Ex. 3, 5-(benzoxazol-2-yl)-2-methyl-1-phenylbenzimidazole] it was “++”.

The test is the same for the next values; noted with them: Test Example 4, same manner as Test Example 1, relative luciferase activity vs 200 ng/mL NGF alone.
For the compound `Cc1nc2cc(-c3nc4ccccc4o3)ccc2n1CCNC(=O)CCC(=O)O` [Ex. 108, 4-oxo-4-(2-(5-(benzoxazol-2-yl)-2-methylbenzimidazol-1-yl)ethyl)aminobutyric acid], the “Activity (potentiation of NGF activity)” value is given as “++”. Same read-out and setting: in the case of `Cc1nc2cc(-c3nc4ccccc4o3)ccc2n1C(c1ccccc1)c1ccccc1` [Ex. 89, 5-(benzoxazol-2-yl)-2-diphenylmethyl-2-methylbenzimidazole] it was “++”; in that of `Cc1nc2cc(-c3nc4cc(C5CCCCC5)ccc4o3)ccc2n1C1CCOCC1` [Ex. 72, 5-(5-cyclohexylbenzoxazol-2-yl)-2-methyl-1-(tetrahydropyran-4-yl)benzimidazole], “++”.

Consider `Cc1nc2cc(-c3nc4ccccc4o3)ccc2n1C1CC1` [Ex. 53, 5-(benzoxazol-2-yl)-2-methyl-1-cyclopropylbenzimidazole], for which the “Activity (potentiation of NGF activity)” value is reported as “++”. On the same count and under the same terms, as for `CCCNC(=O)c1ccc2oc(-c3ccc4c(c3)nc(C)n4C3CCOCC3)nc2c1` [Ex. 99, 2-methyl-5-(5-n-propylaminocarbonylbenzoxazol-2-yl)-1-(tetrahydropyran-4-yl)benzimidazole], the entry is “++”; as for `NCc1nc2cc(-c3nc4ccccc4o3)ccc2n1C1CCOCC1` [Ex. 67, 2-aminomethyl-5-(benzoxazol-2-yl)-1-(tetrahydropyran-4-yl)benzimidazole hydrochloride], “+”; as for `C(#Cc1nc2cc(-c3nc4ccccc4o3)ccc2n1C1CCOCC1)c1ccccc1` [Ex. 69, 5-(benzoxazol-2-yl)-2-(2-phenylethynyl)-1-(tetrahydropyran-4-yl)benzimidazole], “++”. Still for that read-out and setting: in the case of `CS(=O)(=O)CCc1nc2cc(-c3nc4ccccc4o3)ccc2n1C1CCOCC1` [Ex. 134, 5-(benzoxazol-2-yl)-2-(2-(methylsulfonyl)ethyl)-1-(tetrahydropyran-4-yl)benzimidazole] it was “++”; in that of `Cc1nc2cc(-c3nc4ccccc4o3)ccc2n1Cc1ccc(C(=O)O)cc1` [Ex. 114, 5-(benzoxazol-2-yl)-1-(4-carboxyphenylmethyl)-2-methylbenzimidazole], “++”. Still for that read-out and setting: as for `COc1ccc2oc(-c3ccc4c(c3)nc(C)n4C3CCOCC3)nc2c1` [Ex. 66, 5-(5-methoxybenzoxazol-2-yl)-2-methyl-1-(tetrahydropyran-4-yl)benzimidazole], the entry is “++”; as for `c1ccc(Cc2nc3cc(-c4nc5ccccc5o4)ccc3n2C2CCOCC2)cc1` [Ex. 61, 5-(benzoxazol-2-yl)-2-benzyl-1-(tetrahydropyran-4-yl)benzimidazole], “++”; as for `Cc1nc2cc(-c3nc4ccccc4o3)ccc2n1CCc1ccccc1` [Ex. 52, 5-(benzoxazol-2-yl)-2-methyl-1-(2-phenylethyl)benzimidazole], “++”. On to `Cc1nc2cc(-c3nc4ccccc4o3)ccc2n1CCNC(=O)OC(C)(C)C` [Ex. 55, 5-(benzoxazol-2-yl)-1-(2-(tert-butoxycarbonylamino)ethyl)-2-methylbenzimidazole], for which the “Activity (potentiation of NGF activity)” value is reported as “++”. For `Cc1nc2cc(-c3nc4cc(C#N)ccc4o3)ccc2n1C1CCOCC1` [Ex. 75, 5-(5-cyanobenzoxazol-2-yl)-2-methyl-1-(tetrahydropyran-4-yl)benzimidazole], the “Activity (potentiation of NGF activity)” value is recorded as “++”.

As for `Cc1nc2cc(-c3nc4ccccc4o3)c(Cl)cc2n1C1CCOCC1` [Ex. 112, 5-(benzoxazol-2-yl)-2-methyl-1-(tetrahydropyran-4-yl)-6-chlorobenzimidazole], the “Activity (potentiation of NGF activity)” value is listed as “++”. Turning to `CC(=O)OCC(c1ccccc1)n1c(C)nc2cc(-c3nc4ccccc4o3)ccc21` (stereo not drawn) [Ex. 118, 5-(1-benzoxazol-2-yl)-1-(1-acetoxy-2-phenylethan-2-yl)-2-methylbenzimidazole], the “Activity (potentiation of NGF activity)” value is given as “++”.

Regarding `Cc1nc2cc(-c3nc4ccccc4o3)ccc2n1C(CO)c1ccccc1` (stereo not drawn) [Ex. 120, 5-(1-benzoxazol-2-yl)-1-(2-phenylethanol-2-yl)-2-methylbenzimidazole], the “Activity (potentiation of NGF activity)” value is “++”. The same measure, in the same setting: as for `CC(=O)NCc1nc2cc(-c3nc4cc(Cl)ccc4o3)ccc2n1C1CCOCC1` [Ex. 104, 2-acetylaminomethyl-5-(5-chlorobenzoxazol-2-yl)-1-(tetrahydropyran-4-yl)benzimidazole], the entry is “++”. On the same count and under the same terms, as for `CC(C)(C)OC(=O)NCc1nc2cc(-c3nc4ccccc4o3)ccc2n1C1CCOCC1` [Ex. 58, 5-(benzoxazol-2-yl)-2-(tert-butoxycarbamidomethyl)-1-(tetrahydropyran-4-yl)benzimidazole], the entry is “++”.

Source of the values: patent US8829035B2, “Agent for treatment or prevention of diseases associated with activity of neurotrophic factors” (Sumitomo Chemical Company, Limited, priority 2009, dated 2014).
